Source: US20110009379A1, “INDOLINONE COMPOUND” (ASTELLAS PHARMA INC., priority 2008, published 2011)

Key:
[1] = system: delay of discharging time induced by loperamide in mice; test: Loperamide induced constipation model (glass bead discharging time); assay type: in vivo; conditions: Mus musculus; mice (Slc:ddY, male), 0.3 mg/kg loperamide subcutaneously, compound orally; read-out: ED50 (amount which suppresses 50% of the delay of discharging time induced by loperamide)
Protocol: It has been known that loperamide as a μ opioid receptor agonist causes convulsive contraction in intestinal tracts. Thus, a delay in the intestinal transport ability due to loperamide is thought as a constipation IBS model.
Mice (Slc:ddY, five-week old, male) fasted from the previous evening of the experiment. On the day of the experiment, the mice were acclimatized to cages for measurement for 1 hour or more, and 0.3 mg/kg of loperamide was administered subcutaneously. After 30 minutes, a compound to be tested was administered orally, ether anesthesia was applied to the mice immediately thereafter, glass beads having diameter of 3 mm were inserted to 2 cm from anus. The mice were returned to the cages for measurement, and the time from waking to discharging of the glass beads was measured. Furthermore, the compound to be tested was dissolved into 10% DMSO, 10% cremophor, and 80% distillated water.
As a result, it has been recognized that there was a delay in the beads discharging time of the loperamide administration group (vehicle group) in comparison with the loperamide non-administration group (control group).
ED50 values (amount of the compound to be tested which suppresses 50% of the delay of discharging time induced by loperamide) of some of the compounds of the formula (I) are shown in Table 3. In this connection, comparative compound 1 is the same compound as comparative compound 1 in Test Example 4.

RIN14B cells = test: Measurement of 5-HT secretion from RIN14B; assay type: cell-based; conditions: 20 minutes at 37° C., relative to 300 μM allyl isothiocyanate = 100%, HBSS only = 0%
Protocol: In order to investigate whether TRPA1 is related to 5-HT release, 5-HT secretion promotion from RIN14B by a compound to be tested was measured.
The RIN14B cells cultivated in a petri dish were scraped using Phosphate buffered saline (PBS) containing 1 mM EDTA, distributed into 24 well plates, and cultivated for 2 days. As a medium, a medium in which 10% fetal bovine serum (ICN), 100 U/mL penicillin, and 100 μg/mL streptomycin was added to RPMI1640 (Invitrogen), was used. The cells were washed once with HBSS (Invitrogen) and added with 0.1% BSA and 10 μM fluoxetine (TOCRIS Co.), followed by dilution with the above HBSS, the prepared compound to be tested was added to RIN14B cells, followed by cultivation at 37° C., under 5% CO2 condition for 20 minutes. After cultivation, supernatant of cells was recovered, followed by freeze preservation. The content of 5-HT in the supernatant was measured by a commercial serotonin immunoassay kit (Beckman). 5-HT release promotion activation value (%) was evaluated as a relative value when the 5-HT release promotion value by 300 μM of allyl isothiocyanate was defined as 100%, and the 5-HT release promotion value by HBSS for dilution only was defined as 0%.

human TRPA1 = molecular target: T1, human TRPA1 (Homo sapiens, UniProt O75762, K186N/R3C/R58T); test: Measurement of TRPA1 activation activity (intracellular calcium, FLIPR, HEK293 cells stably expressing human TRPA1); assay type: cell-based; conditions: change of intracellular calcium concentration
T1 construct: expressed in transfected cells; pcDNA3.1(+) vector)
Protocol: 10 ng of Human brain mRNA (Clontech Co.) was treated with DNase, and then was reverse transcribed using kit for reverse transcription-polymerase chain reaction (RT-PCR) (SUPERSCRIPT First-Strand Synthesis System for RT-PCR; Invitrogen Co.) to synthesize the first strand cDNA. PCR using a hot start method was performed using the first strand cDNA as a template and Taq DNA polymerase (LA Taq DNA polymerase; TAKARA SHUZO). The PCR was performed using oligonucleotides consisting of the nucleotide sequences, represented by sequence number 2 as a sense primer and sequence number 3 as an antisense primer, in which firstly, heat denaturation was performed at 98° C. (1 minute), and then a cycle of 98° C. (15 seconds)/56° C. (30 seconds)/72° C. (5 minutes) was repeated 35 times. As a result, a DNA fragment of about 3.3 kbp was amplified.
The DNA fragment was cloned to pCR-TOPO vector using a cloning kit (TOPO XL PCR Cloning Kit; Invitrogen). The obtained plasmid DNA was digested with restriction enzymes KpnI and HindIII, and then was cloned using plasmid pcDNA 3.1(+)(Invitrogen). In this connection, the plasmid pcDNA 3.1(+) has a promoter sequence derived from cytemegalovirus, and can be used in order to express a protein in animal cells.
The nucleotide sequences of the obtained clones were analyzed using DNA sequencer (ABI3700 DNA Sequencer; Applied Biosystems) by dideoxyterminator method, and the nucleotide sequence represented by sequence number 1 was obtained. Furthermore, when these sequences were translated to amino acid sequences, the amino acid sequence represented by sequence number 1 was obtained.
After constructing the expression vector of the human TRPA1 gene, selection by G418 was performed from the HEK293 cells which temporarily expressed TRPA1 by transfection operation to obtain cells stably expressing TRPA1. The above operation was performed according to known methods (experimental medicine supplementary volume, “Cultivation Cell Experimental Methods for Molecular Biology Study” published by Toshio Kuroki, Namho Hue and Kazuhiro Chida, 1995, Yodosha).
In order to measure the change of the intracellular calcium concentration in the cells stably expressing the human TRPA1, the change of the intracellular calcium concentration when a compound to be tested was added was measured using FLIPR (Molecular Device).
In order to measure the change of the intracellular calcium concentration with FLIPR, the following pretreatment was performed. First of all, assay buffer was prepared which was for adding fluorescent pigment Fluo4-AM (DOJIN) to the cells or washing the cells just before performing FLIPR assay. To a solution (hereinafter, HBSS/HEPES solution) where 20 mL of 1M HEPES (pH 7.4; Invitrogen) was added to 1000 mL of a physiological saline buffer (Hank's Balanced Salt Solution; HBSS) (Invitrogen), was added 10 mL of a solution where 710 mg of probenecid (Sigma) was dissolved into 5 mL of 1M aqueous NaOH solution and 5 mL of HBSS/HEPES solution was further added and mixed, and the assay buffer was thus prepared. Then, 50 μg of Fluo4-AM was dissolved into 22 μL of DMSO (DOJIN), the same amount of 20% pluronic acid (Molecular Probes) was added thereto and mixed, and the mixture was added to the 10.6 mL of the assay buffer where 105 μL of fetal bovine serum was added, to prepare a fluorescent pigment solution. The medium of the cells stably expressing TRPA1 was removed, 100 μL per well of the fluorescent pigment solution was dispensed immediately, followed by cultivation in a CO2 cultivator for 1 hour, and the fluorescent pigment was soaked in the cells. The cells after cultivation were washed using the assay buffer, followed by being set in FLIPR. Furthermore, a test sample, which was added to the cells stably expressing TRPA1, was prepared by using the assay buffer, and at the same time, was set in FLIPR. […]

Cytochrome P450(2D6) = Cytochrome P450(2D6) (Homo sapiens, UniProt P10635); test: Cytochrome P450(2D6) enzyme inhibition test; assay type: in vitro ADME; conditions: CYP2D6, fluorescent substrate 1.5 μmol/L, 37° C., 20 minutes
Protocol: The experiment was performed in accordance with the method of Crespi et al. (Analytical Biochemistry, 248, 188-190, 1997).
As a substrate, 3-[2-(N,N-diethyl-N-methylamino)ethyl]-7-methoxy-4-methyl coumarine (1.5 μmol/L) a compound to be tested (3.1×10^−7 to 2×10^−5 M) and an enzyme (2.5×10^−8 M) were incubated at 37° C. for 20 minutes in total of […] of 100 mM phosphorous buffer (pH=7.4) including 8.2 mM NADP+, 0.41 mM glucose-6-phosphate, 0.41 mM MgCl2 and 0.4 Units/mL glucose-6-phosphate dehydrogenase, using 96 well plates. Then, 0.5 M aqueous 2-amino-2-hydroxymethyl-1,3-propandiol solution containing 80% acetonitrile was added to stop the reaction, fluorescence intensity (excitation wavelength; 390 nm, fluorescent wavelength; 460 nm) was measured with a fluorescent plate reader. An inhibition ratio was calculated with the following formula, and the test compound concentration when the inhibition ratio is 50% (IC50) was obtained.
C1: fluorescence intensity in the presence of the test compound and enzyme at know concentrations, and the substrate
C0: fluorescence intensity in the presence of the enzyme and substrate, without the test compound
B1: fluorescence intensity of blank well

T1 sequence (O75762 whole entry R3C/R58T/K186N): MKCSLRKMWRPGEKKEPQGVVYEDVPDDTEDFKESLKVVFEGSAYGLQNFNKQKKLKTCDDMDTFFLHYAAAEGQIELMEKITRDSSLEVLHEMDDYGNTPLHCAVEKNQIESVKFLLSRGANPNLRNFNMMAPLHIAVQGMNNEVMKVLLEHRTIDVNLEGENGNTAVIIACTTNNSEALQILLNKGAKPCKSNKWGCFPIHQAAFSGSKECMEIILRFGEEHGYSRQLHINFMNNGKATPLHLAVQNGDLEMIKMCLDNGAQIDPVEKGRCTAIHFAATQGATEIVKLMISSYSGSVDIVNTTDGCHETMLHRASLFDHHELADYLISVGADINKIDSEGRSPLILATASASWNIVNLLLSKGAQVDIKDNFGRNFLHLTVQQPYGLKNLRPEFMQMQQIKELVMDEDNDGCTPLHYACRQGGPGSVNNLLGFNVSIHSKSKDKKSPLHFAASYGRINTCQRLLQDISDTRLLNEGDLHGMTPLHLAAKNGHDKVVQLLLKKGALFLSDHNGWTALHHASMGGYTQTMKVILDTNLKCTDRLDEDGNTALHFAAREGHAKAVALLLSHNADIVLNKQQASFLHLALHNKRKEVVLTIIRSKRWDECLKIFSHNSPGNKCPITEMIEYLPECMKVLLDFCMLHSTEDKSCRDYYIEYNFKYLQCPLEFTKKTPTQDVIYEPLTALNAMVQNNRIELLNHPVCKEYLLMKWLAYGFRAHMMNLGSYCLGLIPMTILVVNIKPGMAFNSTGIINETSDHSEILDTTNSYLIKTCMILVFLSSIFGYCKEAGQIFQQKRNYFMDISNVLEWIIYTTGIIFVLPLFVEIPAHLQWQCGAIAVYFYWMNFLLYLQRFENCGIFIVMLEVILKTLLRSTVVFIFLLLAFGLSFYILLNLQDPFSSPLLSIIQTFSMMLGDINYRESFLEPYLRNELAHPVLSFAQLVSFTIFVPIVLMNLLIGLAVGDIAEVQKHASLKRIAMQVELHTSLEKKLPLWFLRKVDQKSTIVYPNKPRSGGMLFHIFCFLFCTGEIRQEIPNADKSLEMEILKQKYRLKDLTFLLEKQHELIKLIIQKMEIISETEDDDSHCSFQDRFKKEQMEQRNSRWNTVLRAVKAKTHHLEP
Sequence of Cytochrome P450(2D6) (P10635 whole entry): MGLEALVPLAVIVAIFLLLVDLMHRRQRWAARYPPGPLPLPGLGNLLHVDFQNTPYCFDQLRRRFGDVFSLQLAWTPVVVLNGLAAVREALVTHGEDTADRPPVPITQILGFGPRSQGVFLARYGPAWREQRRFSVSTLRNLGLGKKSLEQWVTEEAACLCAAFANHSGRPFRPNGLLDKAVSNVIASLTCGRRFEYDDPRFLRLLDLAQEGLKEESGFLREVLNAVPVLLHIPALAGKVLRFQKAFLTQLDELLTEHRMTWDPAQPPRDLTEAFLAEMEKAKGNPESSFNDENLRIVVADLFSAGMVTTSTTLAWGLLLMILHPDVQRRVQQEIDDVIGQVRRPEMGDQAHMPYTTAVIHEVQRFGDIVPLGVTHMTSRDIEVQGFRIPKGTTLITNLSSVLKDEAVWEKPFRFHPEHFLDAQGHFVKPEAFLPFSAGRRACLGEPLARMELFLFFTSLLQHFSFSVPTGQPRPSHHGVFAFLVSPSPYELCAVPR

O=C(O)/C=C1/C(=O)N(CC2CCCC2)c2ccccc21 [Example 26, (2E)-[1-(cyclopentylmethyl)-2-oxo-1,2-dihydro-3H-indol-3-ylidene]acetic acid]
ED50 [1]: 0.51 mg/kg | 5-HT release promotion activation value (RIN14B cells): 102.5% | EC50 (human TRPA1): 3 µM | melting point: 140 to 142 °C | IC50 (Cytochrome P450(2D6)): > 20 µM
